Read-outs that look alike come from different tables or passages of the source.
Columns and labels:
[1] = test system: HIV-1 Y181C variant; conditions: literature; read-out: reported anti-HIV activity, Y181C; cited from earlier work
[2] = test system: HIV-1 K103N/Y181C variant; conditions: literature; read-out: reported anti-HIV activity, K103N/Y181C; cited from earlier work
[3] = test system: MT-2 human T-cells; assay: Cytotoxicity, inhibition of MT-2 cell growth; format: cell-based
[4] = test system: HIV-1 variant containing the K103N/Y181C mutations; assay: Anti-HIV-1 activity against double-mutant strain in MT-2 cells (MTT); format: cell-based
[5] = test system: HIV-1 variant containing the Y181C (Tyr181Cys) mutation; assay: Anti-HIV-1 activity against variant strain in MT-2 cells (MTT); format: cell-based
[6] = test system: WT HIV-1 (IIIB strain); assay: Anti-HIV-1 activity, protection of infected MT-2 cells (MTT); format: cell-based
[7] = Cytotoxicity, inhibition of MT-2 cell growth; format: cell-based, human; conditions: human
[8] = test system: WT HIV-1; conditions: literature; read-out: reported anti-HIV activity, WT HIV-1; cited from earlier work
[9] = test system: WT HIV-1; conditions: Table 5, literature data (ref. 28), MT4 cells; cited from earlier work
[10] = test system: HIV-1 Y181C variant; conditions: Table 5, literature data (ref. 28), MT4 cells; cited from earlier work
[11] = test system: HIV-1 K103N/Y181C variant; conditions: Table 5, literature data (ref. 28), MT4 cells; cited from earlier work
[12] = test system: MT4 cells; conditions: Table 5, literature data (ref. 28); cited from earlier work
[13] = Human immunodeficiency virus 1, MT2, read-out: EC50 K103N/Y181C
[14] = Human immunodeficiency virus 1, MT2, read-out: EC50 K103N/Y181C variant
[15] = Human immunodeficiency virus 1, MT2, read-out: EC50 Y181C
[16] = Human immunodeficiency virus 1, MT2, read-out: EC50 Y181C variant
[17] = Human immunodeficiency virus 1, IIIB, MT2, running text, read-out: EC50 against WT HIV-1
[18] = Table 4, MT-2 cells, read-out: Cytotoxicity (CC50)
[19] = Table 5, MT-2 cells, read-out: Average Cytotoxicity (CC50)
[20] = Table 5, MT-2 cells, read-out: EC50 K103N/Y181C
[21] = Table 5, MT-2 cells, read-out: EC50 Y181C
[22] = Table 4, catechol diether derivatives, MT-2 cells, read-out: Anti-HIV-1 Activity (EC50)
[23] = Table 5, MT-2 cells, read-out: EC50 WT
[24] = Human immunodeficiency virus 1, IIIB, MT2, read-out: Anti-HIV Activity (EC50)

With `Cc1cc(C)cc(Oc2c(CSCc3ccco3)c(C)[nH]c(=O)c2I)c1` [Compound 3] as the molecule, how does the EC50 [1] read?
Its EC50 is less than 10 nM.

And the EC50 [2]?
Its EC50 is less than 10 nM.

For `N#Cc1cc(Cl)cc(Oc2ccc(Cl)cc2OCCn2cc(Cl)c(=O)[nH]c2=O)c1` [Compound 27, 3-chloro-5-(4-chloro-2-(2-(5-chloro-2,4-dioxo-3,4-dihydropyrimidin-1(2H)-yl)ethoxy)phenoxy)benzonitrile], which CC50 ([3]; human) is on record?
The CC50 was 21000 nM.

What about the “ratio between variant and WT activities (K103N/Y181C / WT)” value [4] of the same molecule?
The value was 34 fold.

What about the EC50 [4, 13] of the same molecule?
Its EC50 is 570 nM.

What about the EC50 [4, 14] of the same molecule?
Its EC50 is 570 nM.

What about the “ratio between variant and WT activities (Y181C/WT)” value [5] of the same molecule?
The value was 14 fold.

What about the EC50 [5, 15] of the same molecule?
The EC50 was 240 nM.

What about the EC50 [5, 16] of the same molecule?
Its EC50 is 240 nM.

And the EC50 [6, 17]?
The EC50 was 17 nM.

With `N#C/C=C/c1cc(Cl)cc(Oc2ccc(Cl)cc2OCCn2ccc(=O)[nH]c2=O)c1` [Compound 42, (E)-3-(3-chloro-5-(4-chloro-2-(2-(2,4-dioxo-3,4-dihydropyrimidin-1(2H)-yl)ethoxy)phenoxy)phenyl)acrylonitrile] as the molecule, how does the CC50 [7] read?
Its CC50 is 10000 nM.

And the EC50 [4, 13]?
Its EC50 is 220 nM.

What about the EC50 [4, 14] of the same molecule?
Its EC50 is 220 nM.

What about the EC50 [5, 15] of the same molecule?
The EC50 was 49 nM.

What about the EC50 [5, 16] of the same molecule?
The EC50 was 49 nM.

And the therapeutic index ([6]; CC50 towards human T-cells vs WT EC50)?
Its therapeutic index is > 180,000.

What about the EC50 ([6]; Human immunodeficiency virus 1, IIIB, MT2, read-out: EC50, initial WT assay) of the same molecule?
Its EC50 is 0.024 nM.

What about the EC50 ([6]; Human immunodeficiency virus 1, IIIB, MT2, running text, side-by-side re-assay, read-out: EC50 against WT HIV-1) of the same molecule?
The EC50 was 0.055 nM.

For `CNc1ccc(Oc2cc(Cl)cc(/C=C/C#N)c2)c(OCCn2ccc(=O)[nH]c2=O)c1` [Compound 43, (E)-3-(3-chloro-5-(2-(2-(2,4-dioxo-3,4-dihydropyrimidin-1(2H)-yl)ethoxy)-4-(methylamino)phenoxy)phenyl)acrylonitrile], which CC50 [7] is on record?
The CC50 was 30000 nM.

And the EC50 [5, 15]?
Its EC50 is 2800 nM.

And the EC50 [6, 17]?
Its EC50 is 20 nM.

For `N#Cc1cc(Cl)cc(Oc2cc(OCc3n[nH]c4ccccc34)ccc2Cl)c1` [Compound 72], which EC50 [1] is on record?
Its EC50 is 13.8 nM.

What about the EC50 [2] of the same molecule?
Its EC50 is 141 nM.

What about the EC50 [8] of the same molecule?
Its EC50 is 4.7 nM.

What does the source list for `N#Cc1cc(Cl)cc(Oc2c(Cl)ccc(Cc3n[nH]c4nnccc34)c2F)c1` [Compound 73]?
EC50 [2]: 4 nM; EC50 [8]: 1 nM

With `N#C/C=C/c1cc(F)cc(Oc2ccc(Cl)cc2OCCn2ccc(=O)[nH]c2=O)c1` [JLJ505] as the molecule, how does the CC50 [3, 18] read?
Its CC50 is greater than 48000 nM.

What about the CC50 [3, 19] of the same molecule?
Its CC50 is no less than 48000 nM.

What about the EC50 [4, 20] of the same molecule?
Its EC50 is 900 nM.

And the EC50 [5, 21]?
The EC50 was 150 nM.

And the EC50 [6, 22]?
Its EC50 is 3.2 nM.

What about the EC50 [6, 23] of the same molecule?
Its EC50 is 3.2 nM.

Which CC50 [3, 18] does the source give for `N#C/C=C/c1cc(F)cc(Oc2ccc(F)cc2OCCn2ccc(=O)[nH]c2=O)c1` [JLJ506] here?
The CC50 was greater than 45000 nM.

And the CC50 [3, 19]?
Its CC50 is no less than 45000 nM.

What about the EC50 [4, 20] of the same molecule?
Its EC50 is 85 nM.

And the EC50 [5, 21]?
The EC50 was 16 nM.

And the EC50 [6, 22]?
The EC50 was 0.342 nM.

What about the EC50 [6, 23] of the same molecule?
Its EC50 is 0.342 nM.

Which results are given for `N#C/C=C/c1cc(F)cc(Oc2ccccc2OCCn2ccc(=O)[nH]c2=O)c1` [JLJ510]?
CC50 [3, 18]: 70000 nM; CC50 [3, 19]: 85000 nM; EC50 [4, 20]: 75 nM; EC50 [5, 21]: 80 nM; EC50 [6, 22]: 0.9 nM; EC50 [6, 23]: 0.9 nM

For `N#C/C=C/c1cc(Cl)cc(Oc2ccc(F)cc2OCCn2ccc(=O)[nH]c2=O)c1` [JLJ516], which CC50 [3, 18] is on record?
The CC50 was 62000 nM.

And the CC50 [3, 19]?
Its CC50 is 63000 nM.

What about the EC50 [4, 20] of the same molecule?
The EC50 was 250 nM.

What about the EC50 [5, 21] of the same molecule?
The EC50 was 60 nM.

And the EC50 [6, 22]?
The EC50 was 0.77 nM.

And the EC50 [6, 23]?
Its EC50 is 0.77 nM.

With `N#C/C=C/c1cc(Cl)cc(Oc2ccccc2OCCn2ccc(=O)[nH]c2=O)c1` [JLJ532] as the molecule, how does the CC50 [3, 18] read?
Its CC50 is 18000 nM.

What about the CC50 [3, 19] of the same molecule?
The CC50 was 11000 nM.

And the EC50 [4, 20]?
The EC50 was 24 nM.

What about the EC50 [5, 21] of the same molecule?
The EC50 was 46 nM.

What about the EC50 [6, 22] of the same molecule?
The EC50 was 0.31 nM.

And the EC50 [6, 23]?
Its EC50 is 0.31 nM.

With `Cc1cc2cc(Oc3cc(Cl)ccc3OCCn3ccc(=O)[nH]c3=O)ccc2o1` [JLJ538] as the molecule, how does the CC50 [7] read?
Its CC50 is 8000 nM.

What about the EC50 [6, 24] of the same molecule?
Its EC50 is 25 nM.

With `O=c1ccn(CCOc2ccc(Cl)cc2Oc2ccc3occc3c2)c(=O)[nH]1` [JLJ539] as the molecule, how does the CC50 [7] read?
The CC50 was 19000 nM.

What about the EC50 [6, 24] of the same molecule?
Its EC50 is 800 nM.

Which CC50 [7] does the source give for `O=c1ccn(CCOc2ccccc2Oc2ccc3[nH]ccc3c2)c(=O)[nH]1` [JLJ547] here?
Its CC50 is 53000 nM.

And the EC50 [6, 24]?
The EC50 was 85 nM.

With `Cc1cc2cc(Oc3ccccc3OCCn3ccc(=O)[nH]c3=O)ccn2c1` [JLJ550] as the molecule, how does the CC50 [7] read?
Its CC50 is 9000 nM.

And the EC50 [6, 24]?
Its EC50 is 50 nM.

For `O=c1ccn(CCOc2ccc(Cl)cc2Oc2ccc3ccoc3c2)c(=O)[nH]1` [JLJ552], which CC50 [7] is on record?
The CC50 was 50000 nM.

And the EC50 [6, 24]?
The EC50 was 900 nM.

Which CC50 [7] does the source give for `N#Cc1cc2cc(Oc3ccccc3OCCn3ccc(=O)[nH]c3=O)ccn2c1` [JLJ555] here?
Its CC50 is greater than 100000 nM.

What about the EC50 [6, 24] of the same molecule?
Its EC50 is 0.38 nM.

Which results are given for `O=C1Nc2ccc(Cl)cc2[C@@](C#CC2CC2)(C(F)(F)F)O1` [efavirenz]?
EC50 [9]: 1.4 nM; EC50 [10]: 2 nM; EC50 [11]: 37 nM

With `Cc1cc(C#N)cc(C)c1Oc1nc(Nc2ccc(C#N)cc2)nc(N)c1Br` [etravirine] as the molecule, how does the EC50 [10] read?
The EC50 was 7 nM.

And the EC50 [11]?
The EC50 was 4 nM.

Which CC50 [12] does the source give for `Cc1cc(/C=C/C#N)cc(C)c1Nc1ccnc(Nc2ccc(C#N)cc2)n1` [rilpivirine, 4-[[4-[[4-[(1E)-2-cyanoethenyl]-2,6-dimethylphenyl]amino]-2-pyrimidinyl]amino]benzonitrile] here?
Its CC50 is 8000 nM.

What about the CC50 ([3]; human) of the same molecule?
Its CC50 is greater than 1000 nM.

What about the EC50 [9] of the same molecule?
The EC50 was 0.4 nM.

What about the EC50 [10] of the same molecule?
Its EC50 is 1.3 nM.

And the EC50 [11]?
The EC50 was 1 nM.

Source: US9487476B2, “Catechol diethers as potent anti-HIV agents” (priority 2011, dated 2016)
